Results from patent US8188089B2, “Tylophorine analogs as antitumor agents” (The University of North Carolina at Chapel Hill, priority 2006, dated 2012).
Structures can show the parent of a compound that is named as a salt. Blank lines part the entries; values can stand above or below the compound they belong to.

Legend:
[1] = tested on: human A549 lung cancer cell line; test: Cell growth inhibition assay (SRB), Example 1; assay type: cell-based; conditions: for IC50: 72 h, A549, SRB, 3 days exposure; for EC50: table footnotes of Example 1, A549
Text: Results and discussion. […] Etoposide (VP-16) was used as the reference compound.
Cell Growth Inhibition Assay. The human A549 lung cancer cell line was used for the cytotoxicity screening of PBT derivatives using the cell-based sulforhodamine B (SRB) microtitre plate assay. […] Duration of compound exposure was 3 days.

[2] = tested on: human A549 lung cancer cell line; test: Cell growth inhibition assay (SRB), Example 2, A549; assay type: cell-based
Text: Cell Growth Inhibition Assay. The sulforhodamine B assay was used according to the procedures developed and validated at NCI. […] The values were interpolated from dose-response data.

[3] = tested on: KB (nasopharyngeal); test: Cell growth inhibition assay (SRB), Example 2, KB; assay type: cell-based, human; conditions: Table 6, 72-h continuous treatment
Text: (§1) Drug-Resistance Study. Twelve active compounds [including four hydrochloride salts (18b, 22b, 24b, 32b) of corresponding active free bases (18a, 22a, 24a, 32a)] were further screened against an extended panel of human tumor cell lines including DU-145 (prostate), ZR-751 (breast), KB (nasopharyngeal), and KB-VIN (multidug-resistant KB subline) in order to explore their antitumor spectra and drug-resistance profiles. Four compounds were used as reference compounds. Antofine is a positional isomer of tylophorine isolated from Asclepiadaceae by Dr. T. S. Wu in Taiwan (Wu, P. L. et al., Heterocycles 2002; 57:2401). […] Doxorubicin (Adriamycin), vincristine, and etoposide (VP-16, Vepesid®) are widely used anticancer agents for treating a range of solid tumors.
(§2) Cell Growth Inhibition Assay. The sulforhodamine B assay was used according to the procedures developed and validated at NCI. The in vitro anticancer activities are expressed as ED50 values, which is the test compound concentration (μM) that reduced the cell number by 50% after 72-h of continuous treatment. The values were interpolated from dose-response data. Each test was performed in triplicate with variation less than 5%. The ED50 values determined in each of independent tests varied less than 10%. Compound stock solutions were prepared in DMSO with the final solvent concentration ≦1% DMSO (v/v), a concentration without effect on cell replication. The cells were cultured at 37° C. in RPMI-1640 supplemented with 25 mM N-2-hydroxyethylpiperazine-N′-2-ethanesulfonic acid (HEPES), […], 10% (v/v) fetal bovine serum, and 100 μg/mL kanamycin in a humidified atmosphere containing 5% CO2.

[4] = tested on: KB-VIN (multidug-resistant KB subline); test: Cell growth inhibition assay (SRB), Example 2, KB-VIN; assay type: cell-based, human; conditions: Table 6, 72-h continuous treatment
Text: as §1, §2

[5] = tested on: DU-145 (prostate); test: Cell growth inhibition assay (SRB), Example 2, DU-145; assay type: cell-based, human; conditions: Table 6, 72-h continuous treatment
Text: as §1, §2

[6] = tested on: ZR-751 (breast); test: Cell growth inhibition assay (SRB), Example 2, ZR-751; assay type: cell-based, human; conditions: Table 6, 72-h continuous treatment
Text: as §1, §2

[7] = Homo sapiens, Table 1, NA = Not Active
[8] = Table 4, ED50, 72-h continuous treatment, NA = not active, read-out: A549 (μM), in vitro anticancer activity against A549 lung cancer cells
[9] = Table 6, 72-h continuous treatment, read-out: EC50 (μM) A549
[10] = Homo sapiens, A549, 72 h, Table 4, ED50, 72-h continuous treatment, NA = not active, read-out: A549 (μM), in vitro anticancer activity against A549 lung cancer cells
[11] = Homo sapiens, A549, 72 h, Table 6, 72-h continuous treatment, read-out: EC50 (μM) A549

- melting point: 263 to 265 °C
Structure (SMILES): O=C(O)c1cc2cc3c(cc2c2cc(OCc4ccccc4)ccc12)OCO3 [Compound 7a, 2,3-Methylenedioxy-6-benzyloxy-phenanthrene-9-carboxylic acid]

- melting point: 145 to 146 °C
Structure (SMILES): COc1ccc2c(CNCCCCC(=O)O)cc3cc4c(cc3c2c1)OCO4

- EC50 [2, 8]: 0.08 µM
- EC50 [2, 9]: 0.08 µM
- EC50 [3]: 0.24 µM
- EC50 [4]: 0.09 µM
- EC50 [5]: 0.03 µM
Structure (SMILES): COc1ccc2c(CN3CCC(CO)CC3)cc3cc4c(cc3c2c1)OCO4 [Compound 24a, N-(2,3-Methylenedioxy-6-methoxy-phenanthr-9-ylmethyl)-L-4-piperidinemethanol]
- EC50 [6]: 0.03 µM

- melting point: 146 to 148 °C
Structure (SMILES): COc1ccc2c(CNCCCCCCCCCCC(=O)O)cc3cc4c(cc3c2c1)OCO4

- EC50 [1]: 6300 nM
Structure (SMILES): COc1ccc2c(CN3CCCC[C@H]3CO)cc3cc(OC)c(OC)cc3c2c1 [Compound 38, N-(2,3,6-Trimethoxyphenanthr-9-ylmethyl)-L-2-piperidinemethanol]

- IC50 ([1]; Homo sapiens, Table 3): 52200 nM
Structure (SMILES): COc1ccc(/C(=C\c2ccc(OC)c(OC)c2)CN2CCC[C@H]2CO)cc1 [Compound 42, {1-[3-(3,4-Dimethoxyphenyl)-2-(4-methoxyphenyl)allyl]-pyrrolidin-2-yl}-methanol]

- melting point: 175 to 177 °C
Structure (SMILES): CC(CCCCO)NCc1cc2cc3c(cc2c2cc(OCc4ccccc4)ccc12)OCO3 (stereo not shown)

- IC50 ([1]; Homo sapiens, Table 3): 80000 nM
Structure (SMILES): COc1ccc(/C(=C\c2cc(OC)c(OC)cc2[N+](=O)[O-])C(=O)N2CCC[C@H]2C(=O)O)cc1 [Compound 39, 1-[3-(4,5-Dimethoxy-2-nitrophenyl)-2-(4-methoxyphenyl)-acryloyl]-pyrrolidine-2-carboxylic acid]

- EC50 [2, 10]: 0.18 µM
- EC50 [2, 11]: 0.18 µM
- EC50 ([3]; Homo sapiens, 72 h): 0.18 µM
- EC50 ([4]; Homo sapiens, KBVIN, 72 h): > 4 µM
- EC50 ([5]; Homo sapiens, DU-145, 72 h): 0.13 µM
Structure (SMILES): COc1cccc2c1C(=O)c1c(O)c3c(c(O)c1C2=O)C[C@@](O)(C(=O)CO)C[C@@H]3O[C@H]1C[C@H](N)[C@H](O)[C@H](C)O1 [Doxorubicin, reference compound]
- EC50 ([6]; Homo sapiens, ZR-75-1, 72 h): 0.04 µM

- melting point: 241 to 243 °C
Structure (SMILES): COc1ccc2c(C(=O)O)cc3cc(OC)c(OC)cc3c2c1 [Compound 7c, 2,3,6-Trimethoxyphenanthrene-9-carboxylic acid]

- melting point: 125 to 126 °C
Structure (SMILES): COc1ccc2c(CNCCCCCO)cc3cc4c(cc3c2c1)OCO4

- IC50 ([1]; Homo sapiens, Table 3): 11700 nM
Structure (SMILES): COc1ccc(/C(=C\c2cc(OC)c(OC)cc2[N+](=O)[O-])CN2CCC[C@H]2CO)cc1 [Compound 41, {1-[3-(4,5-Dimethoxy-2-nitrophenyl)-2-(4-methoxyphenyl)-allyl]-pyrrolidin-2-yl}-methanol]

- melting point: 293 to 295 °C
Structure (SMILES): COc1ccc2c(C(=O)O)cc3cc4c(cc3c2c1)OCO4 [Compound 7b, 2,3-Methylenedioxy-6-methoxy-phenanthrene-9-carboxylic acid]

- melting point: 197 to 199 °C
Structure (SMILES): O=C(O)CCCCNCc1cc2cc3c(cc2c2cc(OCc4ccccc4)ccc12)OCO3

- EC50 [1]: 9700 nM
Structure (SMILES): COc1ccc2c(CN3CCCC[C@H]3C(=O)O)cc3cc(OC)c(OC)cc3c2c1 [Compound 37, N-(2,3,6-Trimethoxyphenanthr-9-ylmethyl)-L-2-piperidinecarboxylic acid]

The remaining lines, values behind:

Structure (SMILES): O=C(O)CCCCCNC(=O)c1cc2cc3c(cc2c2cc(OCc4ccccc4)ccc12)OCO3 [Compound 11, N-(2,3-methylenedioxy-6-benzyloxy-phenanthr-9-ylcarbonyl)-6-aminohexanoic acid]
- IC50 [1, 7]: 41200 nM
- melting point: 198 to 200 °C

Structure (SMILES): COc1ccc2c(CN3CCC(CCO)CC3)cc3cc4c(cc3c2c1)OCO4.Cl [Compound 32b, N-(2,3-Methylenedioxy-6-methoxy-phenanthr-9-ylmethyl)-4-piperidineethanol hydrochloride]
- EC50 ([2]; Table 6, 72-h continuous treatment, hydrochloride, read-out: EC50 (μM) A549): 0.09 µM
- EC50 ([3]; hydrochloride): 0.2 µM
- EC50 ([4]; hydrochloride): 0.2 µM
- melting point: 153 to 155 °C
- EC50 ([5]; hydrochloride): 0.1 µM
- EC50 ([6]; hydrochloride): 0.02 µM

Structure (SMILES): COc1ccc2c(CNCCCCCC(=O)O)cc3cc(OC)c(OC)cc3c2c1
- melting point: 133 to 134 °C

Structure (SMILES): CCCCCC(CCCCCO)NCc1cc2cc3c(cc2c2cc(OC)ccc12)OCO3 (stereo not shown)
- melting point: 122 to 124 °C

Structure (SMILES): O=C(O)[C@@H]1CCCN1C(=O)c1cc2cc3c(cc2c2cc(O)ccc12)OCO3 [Compound 22, N-(2,3-Methylenedioxy-6-hydroxy-phenanthr-9-ylcarbonyl)-L-proline]
- IC50 [1, 7]: 39700 nM
- melting point: 230 to 231 °C

Structure (SMILES): COc1ccc2c3c(c4cc(OC)c(OC)cc4c2c1)C[C@H]1CCCN1C3 [Antofine, reference compound]
- EC50 [2, 8]: 0.008 µM
- EC50 [2, 9]: 0.008 µM
- EC50 [3]: 0.013 µM
- EC50 [4]: 0.009 µM
- EC50 [5]: 0.009 µM
- EC50 [6]: 0.008 µM

Structure (SMILES): CC[C@]1(O)C[C@H]2CN(CCc3c([nH]c4ccccc34)[C@@](C(=O)OC)(c3cc4c(cc3OC)N(C=O)[C@H]3[C@@](O)(C(=O)OC)[C@H](OC(C)=O)[C@]5(CC)C=CCN6CC[C@]43[C@@H]65)C2)C1 [Vincristine, reference compound]
- EC50 [2, 10]: 0.04 µM
- EC50 [2, 11]: 0.04 µM
- EC50 ([3]; Homo sapiens, 72 h): 0.006 µM
- EC50 ([4]; Homo sapiens, KBVIN, 72 h): 5.3 µM
- EC50 ([5]; Homo sapiens, DU-145, 72 h): 0.085 µM
- EC50 ([6]; Homo sapiens, ZR-75-1, 72 h): 0.04 µM

Structure (SMILES): O=C(O)[C@@H]1CCCN1Cc1cc2cc3c(cc2c2cc(OCc4ccccc4)ccc12)OCO3 [Compound 18, N-(2,3-Methylenedioxy-6-benzyloxy-phenanthr-9-ylmethyl)-L-proline]
- IC50 [1, 7]: 4400 nM
- EC50 ([1]; Homo sapiens): 4400 nM
- melting point: 147 to 149 °C

Structure (SMILES): COc1ccc(/C(=C\c2cc(OC)c(OC)cc2[N+](=O)[O-])CN2CCC[C@H]2C(=O)O)cc1 [Compound 40, 1-[3-(4,5-Dimethoxy-2-nitrophenyl)-2-(4-methoxyphenyl)-allyl]-pyrrolidine-2-carboxylic acid]
- IC50 ([1]; Homo sapiens, Table 3): 45200 nM

Structure (SMILES): COc1ccc2c(CN3CCCC[C@H]3CO)cc3cc4c(cc3c2c1)OCO4 [Compound 18b, N-(2,3-Methylenedioxy-6-methoxy-phenanthr-9-ylmethyl)-L-2-piperidinemethanol hydrochloride]
- EC50 [2, 9]: 0.16 µM
- EC50 [3]: 0.12 µM
- EC50 [4]: 0.09 µM
- EC50 [5]: 0.09 µM
- EC50 [6]: 0.08 µM

Structure (SMILES): COc1ccc2c(CN3CCCC[C@H]3CO)cc3cc4c(cc3c2c1)OCO4 [Compound 18a, N-(2,3-Methylenedioxy-6-methoxy-phenanthr-9-ylmethyl)-L-2-piperidinemethanol]
- EC50 [2, 9]: 0.2 µM
- EC50 [5]: 0.21 µM
- EC50 [6]: 0.1 µM

Structure (SMILES): COc1ccc2c(CNCCCCCC(=O)O)cc3cc4c(cc3c2c1)OCO4
- melting point: 167 to 169 °C

Structure (SMILES): COc1ccc2c(CN3CCC[C@H]3CO)cc3cc4c(cc3c2c1)OCO4 [Compound 32, N-(2,3-Methylenedioxy-6-methoxy-phenanthr-9-ylmethyl)-L-prolinol]
- IC50 [1, 7]: 700 nM
- melting point: 138 to 139 °C

Structure (SMILES): CC[C@H]1CN2CCc3cc(OC)c(OC)cc3[C@@H]2C[C@@H]1C[C@H]1NCCc2cc(OC)c(OC)cc21 [Emetine, reference compound]
- EC50 [2, 10]: 0.04 µM
- EC50 [2, 11]: 0.04 µM
- EC50 ([3]; Homo sapiens, 72 h): 0.04 µM
- EC50 ([4]; Homo sapiens, KBVIN, 72 h): > 2 µM
- EC50 ([5]; Homo sapiens, DU-145, 72 h): 0.06 µM
- EC50 ([6]; Homo sapiens, ZR-75-1, 72 h): 0.1 µM

Structure (SMILES): O=C(O)CCCCCNCc1cc2cc3c(cc2c2cc(OCc4ccccc4)ccc12)OCO3 [Compound 12, N-(2,3-Methylenedioxy-6-benzyloxy-phenanthr-9-ylmethyl)-6-aminohexanoic acid]
- IC50 [1, 7]: 1600 nM
- melting point: 184 to 186 °C

Structure (SMILES): COC(=O)CCCCCNC(=O)c1cc2cc3c(cc2c2cc(OCc4ccccc4)ccc12)OCO3 [Compound 10, Methyl N-(2,3-methylenedioxy-6-benzyloxy-phenanthr-9-ylcarbonyl)-6-aminohexanoate]
- IC50 [1, 7]: 41200 nM
